Tests used:
[1] = Stability analysis (storage, CorA content by HPLC-DAD); assay type: physicochemical
Protocol: The stability of the spray dried amorphous formulation of corallopyronin A embedded in polyvinylpyrrolidone was analyzed after storing samples in drying cabinets at 25° C./60% relative humidity (RH) and under accelerated conditions at 40° C./75% RH for 7, 14, 28 days and 3 months. The samples were stored in closed twist-off glass vials under nitrogen and in the presence of silica desiccant. The content was analyzed by High-Performance Liquid Chromatography with Diode-Array Detection (HPLC-DAD). The samples were, therefore, dissolved in acetonitrile (Bernd Kraft GmbH, Duisburg). The HPLC measurements were performed on a Waters Alliance e2695 separation module connected to a waters 2998 PDA detector. A waters XBridge® Shield RP18, 3.5 μm, 2.1×100 mm, 130 A column was used. For the gradient method starting from 70% A/30% B to 20% A/80% B stepwise within 30 min, the mobile phases A (acetonitrile/water (Bernd Kraft GmbH, Duisburg) 5/95 with 5 mM ammonium acetate (Merck KGaA, Darmstadt) and 40 μL acetic acid (Sigma-Aldrich Chemie GmbH, Steinheim) per Liter) and B (acetonitrile/water 95/5 with 5 mM ammonium acetate and 40 μL acetic acid per liter) enabled to quantitate corallopyronin A precisely at 300 nm at a flow rate of 0.3 mL/min and a column temperature of 30° C. The samples were quantitated via external reference standard. The content of the corallopyronin A reference material was analyzed by ^1H-NMR. The following table 2 summarizes the results of the stability analysis.

[2] = Solubility of corallopyronin A in ethanol; assay type: physicochemical
[3] = Biphasic dissolution test (BiPHa+); assay type: physicochemical; settings: organic phase 1-decanol
Source text: To simulate the gastrointestinal properties to obtain in vivo predictive results, the pH-profile, bile salt concentration and gastrointestinal passage time were adjusted in the aqueous phase to mimic human gut conditions. […] An organic phase of 1-decanol above the aqueous phase imitated the fraction absorbed from the gut. As a test model, the profile of a person without prior food intake was chosen. Therefore, FaSSIF-V2 medium, which represents the bile salts concentration of a fasted human was used. […] To generate an in-situ biorelevant aqueous medium for the fasted state, biorelevant surfactants, namely sodium-taurocholate (3 mM) and lecithin (0.2 mM), were added.
Prior to the start of the experiments, both phases, 1-decanol and the acidic aqueous phase, were saturated with each other.
After 30 min FaSSIF-V2 concentrate (sodium-taurocholate and lecithin) was added simultaneously to the addition of citrate-phosphate buffer (tri-potassium phosphate and potassium citrate) resulting in a first pH-shift from pH 1 to pH 5.5, simulating the duodenum. […] The adjusted buffers were titrated by 0.1 M NaOH and 0.1 M HCl (pH 5.5-6.8). The whole dissolution took 4.5 hours.

[4] = Pharmacokinetic analysis in vivo in BALB/c mice; design: species or system BALB/c female mice; settings: PO, Example 13, compared to IV set to 100%
Protocol: Pharmacokinetic analysis was performed in vivo in fed BALB/c female mice (n=4) (Study DZIF11). The solid formulation was suspended right before administration in PBS (phosphate buffered saline; pH=7.4) and was administered via gavage (36 mg/kg CorA, 10 mL/kg). Blood samples from the vena facialis were collected after 5, 10, 15, 30, 180, and 480 min. The samples were centrifuges for 10 min at 4° C. and 15000 g. The generated plasma was mixed in a ration of 1:3 with ice-cold acetonitrile (Bernd Kraft GmbH, Duisburg). The mixture was vortexed for 10 sec and centrifuged for 25 min at 4° C. and 11600 g. […] For the gradient method starting from 70% A/30% B to 20% A/80% B stepwise within 30 min, the mobile phases A (acetonitrile/water (Bernd Kraft GmbH, Duisburg) 5/95 with 5 mM ammonium acetate (Merck KGaA, Darmstadt) and 40 μL acetic acid (Sigma-Aldrich Chemie GmbH, Steinheim) per Liter) and B (acetonitrile/water 95/5 with 5 mM ammonium acetate and 40 μL acetic acid per Liter) enabled to quantitate corallopyronin A precisely at 300 nm at a flow rate of 0.3 mL/min and a column temperature of 30° C. The samples were quantitated via external reference standard. The content of the corallopyronin A reference material was analyzed by ^1H-NMR.
Plasma concentration-time profiles were generated and pharmacokinetic parameters calculated. […]

methyl N-[(E)-5-[6-hydroxy-5-[(2E,4E,9Z,13E)-8-hydroxy-2,5,9-trimethylpentadeca-2,4,9,13-tetraenoyl]-4-oxopyran-2-yl]hex-1-enyl]carbamate [CorA]
CorA Content ([1]; 3 months, 25° C., 60% RH, listed as Corallopyronin A): 39%
CorA Content ([1]; 3 months, 25° C., 60% RH, listed as corallopyronin A): below 40%
CorA Content ([1]; 3 months, 40° C., 75% RH, listed as Corallopyronin A): 6%
CorA Content ([1]; 3 months, 40° C., 75% RH, listed as corallopyronin A): below 10%
CorA Content ([1]; 7 days, 25° C., 60% RH, listed as Corallopyronin A): 85%
CorA Content ([1]; 7 days, 25° C., 60% RH, listed as corallopyronin A): below 90%
CorA Content ([1]; 7 days, 40° C., 75% RH, listed as Corallopyronin A): 47%
CorA Content ([1]; 7 days, 40° C., 75% RH, listed as corallopyronin A): below 50%
CorA Content ([1]; 14 days, 25° C., 60% RH): 76%
CorA Content ([1]; 14 days, 40° C., 75% RH): 31%
CorA Content ([1]; 28 days, 25° C., 60% RH): 63%
CorA Content ([1]; 28 days, 40° C., 75% RH): 17%
CorA Content ([1]; storage duration 0): 99%
amount that can be dissolved in ethanol [2]: 100 mg/mL
predicted absorption ([3]; FaSSIF-V2 fasted human, pH 1 to 5.5 to 6.8, 4.5 hours, about 10 mg CorA): 7.7%
Maximum Partitioned Drug in the Organic Phase (%) ([3]; fasted human gut conditions, 4.5 h): 8%
Absolute Bioavailability [4]: 11%

Source: patent US20230181522A1, “SOLID AND LIQUISOLID FORMULATIONS OF CORALLOPYRONIN A” (RHEINISCHE FRIEDRICH-WILHELMS-UNIVERSITÄT BONN, priority 2020, published 2023)
